Experimental data taken from patent US9073855B2, “BCL-2 selective apoptosis-inducing agents for the treatment of cancer and immune diseases” (AbbVie Inc., priority 2008, dated 2015).
pEC50, pKi: −log10 of the molar value.

Assays:
GST-Bcl-XL = GST-Bcl-XL (Homo sapiens, UniProt Q07817); test: TR-FRET binding assay, GST-Bcl-XL with F-Bak peptide probe; conditions: TR-FRET Binding Affinity, GST-Bcl-XL, F-Bak peptide probe
Outline: (§1)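 Competitive TR-FRET: GST-fusion protein, fluorescent Bak peptide probe and Tb-labelled anti-GST antibody incubated with compound dilution series (starting 50 μM as 2× stock, 10% DMSO) for 3 h at RT. Excitation 340/35 nm; Ki derived via Wang's exact competitive-binding equation.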

FL5.12/Bcl-2 cells = test: FL5.12/Bcl-2 cell viability assay under IL-3 withdrawal (CellTitre Glo); format: cell-based, murine; conditions: Mus musculus, IL-3 withdrawn 48 hrs, then 24 hrs with compound
Outline: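 Murine IL-3-dependent FL5.12 cells stably overexpressing Bcl-2 were deprived of IL-3 (WEHI-3B conditioned medium omitted) for 48 hrs, then exposed to various compound concentrations for a further 24 hrs at 37° C, 5% CO2. Viability was read by CellTitre Glo luminescence.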

GST-Bcl-2 = GST-Bcl-2 (Homo sapiens, UniProt P10415); test: TR-FRET binding assay, GST-Bcl-2 with F-Bak peptide probe; conditions: for pKi: TR-FRET Binding Affinity, GST-Bcl-2, F-Bak peptide probe; for Binding selectivity ratio (Bcl-XL Ki/Bcl-2 Ki): ratio of TR-FRET Ki values, Bcl-XL over Bcl-2
GST-Bcl-2, sequence (P10415 whole entry): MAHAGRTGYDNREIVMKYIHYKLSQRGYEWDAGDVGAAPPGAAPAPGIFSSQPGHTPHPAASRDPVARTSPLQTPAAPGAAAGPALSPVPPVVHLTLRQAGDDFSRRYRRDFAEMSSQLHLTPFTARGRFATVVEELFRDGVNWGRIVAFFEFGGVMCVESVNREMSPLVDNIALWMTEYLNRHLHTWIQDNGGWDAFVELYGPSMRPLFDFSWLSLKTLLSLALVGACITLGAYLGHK
Outline: as §1

GST-Bcl-XL, sequence (Q07817 whole entry, the tested form may be a part): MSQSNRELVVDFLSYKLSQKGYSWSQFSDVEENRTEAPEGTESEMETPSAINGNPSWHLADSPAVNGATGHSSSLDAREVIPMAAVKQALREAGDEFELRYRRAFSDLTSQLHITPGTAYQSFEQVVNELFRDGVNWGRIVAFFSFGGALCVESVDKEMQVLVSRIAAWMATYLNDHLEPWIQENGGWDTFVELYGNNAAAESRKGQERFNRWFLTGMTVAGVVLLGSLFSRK

SMILES	pKi (GST-Bcl-XL)	pEC50 (FL5.12/Bcl-2 cells)	pKi (GST-Bcl-2)	Binding selectivity ratio (Bcl-XL Ki/Bcl-2 Ki) (GST-Bcl-2)
CC1(C)CCC(CN2CCN(c3ccc(C(=O)NS(=O)(=O)c4cnc(OCC5(F)CCOCC5)c(Cl)c4)c(Oc4cccc5[nH]ncc45)c3)CC2)=C(c2ccc(Cl)cc2)C1 [Example 404, N-({5-chloro-6-[(4-fluorotetrahydro-2H-pyran-4-yl)methoxy]pyridin-3-yl}sulfonyl)-4-(4-{[2-(4-chlorophenyl)-4,4-dimethylcyclohex-1-en-1-yl]methyl}piperazin-1-yl)-2-(1H-indazol-4-yloxy)benzamide]	7.52	8.63	10.92	2423.5
CC1(C)CCC(CN2CCN(c3ccc(C(=O)NS(=O)(=O)c4ccc(NCCC#N)c([N+](=O)[O-])c4)c(Oc4ccc5[nH]ccc5c4)c3)CC2)=C(c2ccc(Cl)cc2)C1 [Example 319, 4-(4-{[2-(4-chlorophenyl)-4,4-dimethylcyclohex-1-en-1-yl]methyl}piperazin-1-yl)-N-({4-[(2-cyanoethyl)amino]-3-nitrophenyl}sulfonyl)-2-(1H-indol-5-yloxy)benzamide]	6.68	7.50	9.38	
CC1(C)CCC(CN2CCN(c3ccc(C(=O)NS(=O)(=O)c4ccc(NC5CCN(C6CCOCC6)CC5)c([N+](=O)[O-])c4)c(Oc4cccc5[nH]ncc45)c3)CC2)=C(c2ccc(Cl)cc2)C1 [Example 401, 4-(4-{[2-(4-chlorophenyl)-4,4-dimethylcyclohex-1-en-1-yl]methyl}piperazin-1-yl)-2-(1H-indazol-4-yloxy)-N-({3-nitro-4-[(1-tetrahydro-2H-pyran-4-ylpiperidin-4-yl)amino]phenyl}sulfonyl)benzamide]	8.79	8.27	> 11.00	>162.1
CN1CC(Nc2ccc(S(=O)(=O)NC(=O)c3ccc(N4CCN(CC5=C(c6ccc(Cl)cc6)CC(C)(C)CC5)CC4)cc3Oc3ccc4[nH]ccc4c3)cc2[N+](=O)[O-])CCC1=O (centres unmarked) [Example 282, 4-(4-{[2-(4-chlorophenyl)-4,4-dimethylcyclohex-1-en-1-yl]methyl}piperazin-1-yl)-2-(1H-indol-5-yloxy)-N-({4-[(1-methyl-6-oxopiperidin-3-yl)amino]-3-nitrophenyl}sulfonyl)benzamide]	6.25	7.04	9.79	
CC1(C)CCC(CN2CCN(c3ccc(C(=O)NS(=O)(=O)c4ccc(NCC5CCS(=O)(=O)CC5)c([N+](=O)[O-])c4)c(Oc4cccc5[nH]ccc45)c3)CC2)=C(c2ccc(Cl)cc2)C1 [Example 301, 4-(4-{[2-(4-chlorophenyl)-4,4-dimethylcyclohex-1-en-1-yl]methyl}piperazin-1-yl)-N-[(4-{[(1,1-dioxidotetrahydro-2H-thiopyran-4-yl)methyl]amino}-3-nitrophenyl)sulfonyl]-2-(1H-indol-4-yloxy)benzamide]	< 6.18	7.23	9.54	
CC1(C)CCC(CN2CCN(c3ccc(C(=O)NS(=O)(=O)c4ccc(NCCCN5CCOCC5)c(S(=O)(=O)C(F)(F)F)c4)c(Oc4cccc5[nH]ccc45)c3)CC2)=C(c2ccc(Cl)cc2)C1 [Example 349, 4-(4-{[2-(4-chlorophenyl)-4,4-dimethylcyclohex-1-en-1-yl]methyl}piperazin-1-yl)-2-(1H-indol-4-yloxy)-N-({4-[(3-morpholin-4-ylpropyl)amino]-3-[(trifluoromethyl)sulfonyl]phenyl}sulfonyl)benzamide]	7.62	6.84	9.33	
CC1(C)CCC(CN2CCN(c3ccc(C(=O)NS(=O)(=O)c4ccc(NN5CCCCC5)c([N+](=O)[O-])c4)c(Oc4ccc5[nH]ccc5c4)c3)CC2)=C(c2ccc(Cl)cc2)C1 [Example 284, 4-(4-{[2-(4-chlorophenyl)-4,4-dimethylcyclohex-1-en-1-yl]methyl}piperazin-1-yl)-2-(1H-indol-5-yloxy)-N-{[3-nitro-4-(piperidin-1-ylamino)phenyl]sulfonyl}benzamide]	< 6.18	< 6.30	8.81	
CC1(C)CCC(CN2CCN(c3ccc(C(=O)NS(=O)(=O)c4ccc(NC5CCS(=O)(=O)C5)c([N+](=O)[O-])c4)c(Oc4cccc5[nH]ccc45)c3)CC2)=C(c2ccc(Cl)cc2)C1 (centres unmarked) [Example 299, 4-(4-{[2-(4-chlorophenyl)-4,4-dimethylcyclohex-1-en-1-yl]methyl}piperazin-1-yl)-N-({4-[(1,1-dioxidotetrahydrothien-3-yl)amino]-3-nitrophenyl}sulfonyl)-2-(1H-indol-4-yloxy)benzamide]	6.61	7.11	9.37	
CN1CCC(Nc2ccc(S(=O)(=O)NC(=O)c3ccc(N4CCN(CC5=C(c6ccc(Cl)cc6)CCC(O)C5)CC4)cc3Oc3ccc4[nH]ccc4c3)cc2[N+](=O)[O-])CC1 (centres unmarked) [Example 224, 4-(4-{[2-(4-chlorophenyl)-5-hydroxycyclohex-1-en-1-yl]methyl}piperazin-1-yl)-2-(1H-indol-5-yloxy)-N-({4-[(1-methylpiperidin-4-yl)amino]-3-nitrophenyl}sulfonyl)benzamide]	9.00	7.67	> 11.00	
CC1(C)CCC(CN2CCN(c3ccc(C(=O)NS(=O)(=O)c4ccc(N[C@@H]5CCN(Cc6ccccc6)C[C@@H]5O)c([N+](=O)[O-])c4)c(Oc4ccc5[nH]ccc5c4)c3)CC2)=C(c2ccc(Cl)cc2)C1 [Example 187, N-[(4-{[(3S,4R)-1-benzyl-3-hydroxypiperidin-4-yl]amino}-3-nitrophenyl)sulfonyl]-4-(4-{[2-(4-chlorophenyl)-4,4-dimethylcyclohex-1-en-1-yl]methyl}piperazin-1-yl)-2-(1H-indol-5-yloxy)benzamide]	< 6.18	6.47	9.48	
CC1(C)CCC(CN2CCN(c3ccc(C(=O)NS(=O)(=O)c4ccc(OCC#CCN5CCOCC5)c([N+](=O)[O-])c4)c(Oc4ccc5[nH]ccc5c4)c3)CC2)=C(c2ccc(Cl)cc2)C1 [Example 390, 4-(4-{[2-(4-chlorophenyl)-4,4-dimethylcyclohex-1-en-1-yl]methyl}piperazin-1-yl)-2-(1H-indol-5-yloxy)-N-({4-[(4-morpholin-4-ylbut-2-ynyl)oxy]-3-nitrophenyl}sulfonyl)benzamide]	6.94	7.39	9.47	
CN(C)CCOc1cccc(-c2ccc(Cl)cc2)c1CN1CCN(c2ccc(C(=O)NS(=O)(=O)c3ccc(NC4CCN(C5CCOCC5)CC4)c([N+](=O)[O-])c3)c(Oc3cccc4[nH]ccc34)c2)CC1 [Example 199, 4-[4-({4′-chloro-3-[2-(dimethylamino)ethoxy]-1,1′-biphenyl-2-yl}methyl)piperazin-1-yl]-2-(1H-indol-4-yloxy)-N-({3-nitro-4-[(1-tetrahydro-2H-pyran-4-ylpiperidin-4-yl)amino]phenyl}sulfonyl)benzamide]	8.28	7.54	10.85	
CC1(C)CCC(CN2CCN(c3ccc(C(=O)NS(=O)(=O)c4ccc(NCCC(F)(F)F)c([N+](=O)[O-])c4)c(Oc4cccc5[nH]ccc45)c3)CC2)=C(c2ccc(Cl)cc2)C1 [Example 323, 4-(4-{[2-(4-chlorophenyl)-4,4-dimethylcyclohex-1-en-1-yl]methyl}piperazin-1-yl)-2-(1H-indol-4-yloxy)-N-({3-nitro-4-[(3,3,3-trifluoropropyl)amino]phenyl}sulfonyl)benzamide]	< 6.18	7.04	9.02	
CC1(C)CCC(CN2CCN(c3ccc(C(=O)NS(=O)(=O)c4cnc(NCC5CCOCC5)c(-c5nccs5)c4)c(Oc4cccc5[nH]ccc45)c3)CC2)=C(c2ccc(Cl)cc2)C1 [Example 365, 4-(4-{[2-(4-chlorophenyl)-4,4-dimethylcyclohex-1-en-1-yl]methyl}piperazin-1-yl)-2-(1H-indol-4-yloxy)-N-{[6-[(tetrahydro-2H-pyran-4-ylmethyl)amino]-5-(1,3-thiazol-2-yl)pyridin-3-yl]sulfonyl}benzamide]	< 6.18	< 6.30	8.97	
COCCCNc1ccc(S(=O)(=O)NC(=O)c2ccc(N3CCN(CC4=C(c5ccc(Cl)cc5)CC(C)(C)CC4)CC3)cc2Oc2ccc3[nH]ccc3c2)cc1[N+](=O)[O-] [Example 317, 4-(4-{[2-(4-chlorophenyl)-4,4-dimethylcyclohex-1-en-1-yl]methyl}piperazin-1-yl)-2-(1H-indol-5-yloxy)-N-({4-[(3-methoxypropyl)amino]-3-nitrophenyl}sulfonyl)benzamide]	< 6.18	7.08	8.55	
CC1(C)CCC(CN2CCN(c3ccc(C(=O)NS(=O)(=O)c4ccc(NC5CCN(Cc6cscn6)CC5)c([N+](=O)[O-])c4)c(Oc4ccc5[nH]ccc5c4)c3)CC2)=C(c2ccc(Cl)cc2)C1 [Example 231, 4-(4-{[2-(4-chlorophenyl)-4,4-dimethylcyclohex-1-en-1-yl]methyl}piperazin-1-yl)-2-(1H-indol-5-yloxy)-N-[(3-nitro-4-{[1-(1,3-thiazol-4-ylmethyl)piperidin-4-yl]amino}phenyl)sulfonyl]benzamide]	< 6.18	7.29	9.04	
CC1(C)CCC(CN2CCN(c3ccc(C(=O)NS(=O)(=O)c4ccc(NCCCn5ccnc5)c([N+](=O)[O-])c4)c(Oc4ccc5[nH]ccc5c4)c3)CC2)=C(c2ccc(Cl)cc2)C1 [Example 377, 4-(4-{[2-(4-chlorophenyl)-4,4-dimethylcyclohex-1-en-1-yl]methyl}piperazin-1-yl)-N-[(4-{[3-(1H-imidazol-1-yl)propyl]amino}-3-nitrophenyl)sulfonyl]-2-(1H-indol-5-yloxy)benzamide]	6.49	7.07	9.85	
